Laboratory results taken from the supplement of paper PMC11451515.

System: P12-Ichikawa
Experiment: cell viability relative to DMSO control; higher = less cytotoxic
Details: 48 h
Method in brief: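 NOMO1, SEM and P12-Ichikawa leukemia cells spent at least four passages adapting to each medium before use. They were seeded at 500 cells/well (NOMO1, SEM) or 1000 cells/well (P12-Ichikawa) in 5 μl in 1536-well plates and pin-dosed with library compounds in DMSO at 11 threefold steps from 47 μM down to 0.79 nM. After 48 h at 37°C, CellTiter-Glo One luminescence was read. Viability is reported as a percentage of the DMSO wells on each plate, with cell-free wells as background.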

[1] = HPLM + 10% dialyzed FBS, 0.000781 µM
[2] = HPLM + 10% dialyzed FBS, 0.00234 µM
[3] = HPLM + 10% dialyzed FBS, 0.00702 µM
[4] = HPLM + 10% dialyzed FBS, 0.0211 µM
[5] = HPLM + 10% dialyzed FBS, 0.0632 µM
[6] = HPLM + 10% dialyzed FBS, 0.19 µM
[7] = HPLM + 10% dialyzed FBS, 0.569 µM
[8] = HPLM + 10% dialyzed FBS, 1.71 µM
[9] = HPLM + 10% dialyzed FBS, 5.12 µM
[10] = HPLM + 10% dialyzed FBS, 15.4 µM
[11] = HPLM + 10% dialyzed FBS, 46.1 µM
[12] = RPMI 5 mM glucose + 10% FBS, 0.000781 µM
[13] = RPMI 5 mM glucose + 10% FBS, 0.00234 µM
[14] = RPMI 5 mM glucose + 10% FBS, 0.00702 µM
[15] = RPMI 5 mM glucose + 10% FBS, 0.0211 µM
[16] = RPMI 5 mM glucose + 10% FBS, 0.0632 µM
[17] = RPMI 5 mM glucose + 10% FBS, 0.19 µM
[18] = RPMI 5 mM glucose + 10% FBS, 0.569 µM
[19] = RPMI 5 mM glucose + 10% FBS, 1.71 µM
[20] = RPMI 5 mM glucose + 10% FBS, 5.12 µM
[21] = RPMI 5 mM glucose + 10% FBS, 15.4 µM
[22] = RPMI 5 mM glucose + 10% FBS, 46.1 µM
[23] = RPMI 5 mM glucose + 10% dialyzed FBS, 0.000781 µM
[24] = RPMI 5 mM glucose + 10% dialyzed FBS, 0.00234 µM
[25] = RPMI 5 mM glucose + 10% dialyzed FBS, 0.00702 µM
[26] = RPMI 5 mM glucose + 10% dialyzed FBS, 0.0211 µM
[27] = RPMI 5 mM glucose + 10% dialyzed FBS, 0.0632 µM
[28] = RPMI 5 mM glucose + 10% dialyzed FBS, 0.19 µM
[29] = RPMI 5 mM glucose + 10% dialyzed FBS, 0.569 µM
[30] = RPMI 5 mM glucose + 10% dialyzed FBS, 1.71 µM
[31] = RPMI 5 mM glucose + 10% dialyzed FBS, 5.12 µM
[32] = RPMI 5 mM glucose + 10% dialyzed FBS, 15.4 µM
[33] = RPMI 5 mM glucose + 10% dialyzed FBS, 46.1 µM

Row | SMILES | cell viability [1] [%] | cell viability [2] [%] | cell viability [3] [%] | cell viability [4] [%] | cell viability [5] [%] | cell viability [6] [%] | cell viability [7] [%] | cell viability [8] [%] | cell viability [9] [%] | cell viability [10] [%] | cell viability [11] [%] | cell viability [12] [%] | cell viability [13] [%] | cell viability [14] [%] | cell viability [15] [%] | cell viability [16] [%] | cell viability [17] [%] | cell viability [18] [%] | cell viability [19] [%] | cell viability [20] [%] | cell viability [21] [%] | cell viability [22] [%] | cell viability [23] [%] | cell viability [24] [%] | cell viability [25] [%] | cell viability [26] [%] | cell viability [27] [%] | cell viability [28] [%] | cell viability [29] [%] | cell viability [30] [%] | cell viability [31] [%] | cell viability [32] [%] | cell viability [33] [%]
1 | O=C(/C=C/c1cccnc1)NCCCCC1CCN(C(=O)c2ccccc2)CC1 | 103 | 72.1 | 15.1 | 7.38 | 5.18 | 4.94 | 4.8 | 4.59 | 4.4 | 4 | 2.9 | 103 | 109 | 16.9 | 6.84 | 5.28 | 5.01 | 4.19 | 4.32 | 3.69 | 2.71 | 1.74 | 102 | 109 | 24.4 | 8.02 | 5.06 | 4.88 | 4.59 | 4.67 | 3.92 | 2.96 | 2.11
2 | NC(=O)Cc1cccc(C(=O)c2ccccc2)c1N | 101 | 103 | 103 | 92.6 | 110 | 111 | 103 | 106 | 97.7 | 98.6 | 95.6 | 100 | 96.6 | 102 | 86.9 | 106 | 94.3 | 97 | 96.2 | 99 | 85.3 | 82.9 | 102 | 101 | 101 | 85.2 | 96.1 | 98.3 | 101 | 99.3 | 101 | 87.7 | 85.2
3 | COc1ccc(-c2cc3c(C)nc(N)nc3n([C@H]3CC[C@H](OCCO)CC3)c2=O)cn1 | 103 | 107 | 103 | 85.5 | 88.3 | 72 | 66.2 | 66 | 63.9 | 63.5 | 48.2 | 98.2 | 95.3 | 85.9 | 78 | 70.2 | 55.1 | 51.4 | 44.8 | 42.7 | 37.9 | 35.4 | 96.6 | 98.2 | 85.1 | 76 | 72.3 | 58.7 | 55.5 | 45.9 | 39.3 | 38.7 | 37.4
